Measured values taken from patent US9862711B2, “Pyrazine derivatives as phosphatidylinositol 3-kinase inhibitors” (NOVARTIS AG, priority 2014, dated 2018).

Each molecule was assayed on IL-8-induced neutrophil shape change in human whole blood (assay: Whole blood neutrophil shape change assay (Assay L)). Conditions: 2 nM IL-8, neutrophil shape change by flow cytometry, read-out: Assay L WBSC IC50.
Type: cell-based
Experimental: Whole Blood Neutrophil Shape Change Assay (L)
A flow cytometry based method used to measure the inhibition of IL-8 (interleukin-8)-induced neutrophil shape change in human whole blood.
IL-8 was made up to 2 μM stocks in 0.1% bovine serum albumin/PBS and stored at −80° C. On the day IL-8 was diluted in PBS (phosphate buffered saline) 10 minutes before use. IL-8 was used at final concentration of 2 nM and a concentration range from […] to 200 nM for the donor dose response curve.
Assay fixative solution was prepared fresh each day from 10× concentrated CellFIX™ solution diluted 1:10 in sterile distilled water and then 1:4 with PBS. Assay fixative solution was kept on ice prior to use.
A 10× lysis buffer was prepared in advance by dissolving 20.75 g […] and 2.5 g KHCO3 in 250 ml sterile H2O. This 10× lysis buffer was filtered under sterile conditions and stored for up to two weeks at 4° C. On the day a 1× lysis solution was prepared with sterile distilled H2O and kept on ice prior to use.
The test compounds were prepared as 10 mM stock solutions in 100% DMSO and were stored at 4° C. Once in use for an assay 10 mM stock compounds were thawed and stored at RT protected from light. Compound dilutions were prepared fresh on the day. The first series of dilutions in 100% DMSO were done first thing in the morning. Only once blood had been collected and arrived in laboratory was the next set of dilutions into PBS carried out (1:10 PBS, 10% DMSO). This limited the exposure of diluted compound to plastic and made sure the exposure timing was consistent between assays. Compounds were added to the deep 96 well plates at 10× the final desired concentration (with addition of blood final [DMSO]=1%).
Table 3 illustrates the compound dilution series used in human whole blood neutrophil shape change assay.
On the day of running the assay, assay fixative buffer and 1× lysis solutions were prepared and stored on ice. Compound dilutions in 100% DMSO were prepared as described previously. Human whole blood was collected in K2 EDTA Vacutainers. Once blood was in the laboratory, compound dilutions into PBS were carried out as described previously and depicted in Table 1. 10 μl of 10× final compound concentration was added to appropriate wells of a deep 96-well plate except controls where 10 μl of 10% DMSO was added in place of compound, as outlined in the dilution series in Table 1. The outer wells of the deep well assay plate were filled with 1200 μl of sterile distilled H2O in an effort to limit edge effects (rows A1-H1, A1-A12, A12-H12). An IL-8 dose response was determined for each blood donor examined, to monitor the donor response to IL-8. At this step in assay preparation for the IL-8 dose response samples 10 μl of PBS was added to designated wells. In addition the assay window without DMSO was also assessed each day. For such samples at this step in assay preparation 10 μl of PBS was added in the place of 10% DMSO.
80 μl of whole blood was added to compound/10% DMSO/PBS and mixed once gently upon addition. Lids were placed on the 96 well plates and samples were incubated for 15 minutes at 37° C. in a water-bath.
Following the compound pre-incubation 10× final IL-8 was added to appropriate wells (10 μl of 20 nM working stock IL-8, final IL-8 concentration in blood=2 nM) and 10 μl of PBS was added to the un-stimulated controls. 10× final dose response range IL-8 was also added to designated wells (final concentration range on assay plate was 200 nM to 0.0005 nM, 1:5 serial dilution in PBS). The IL-8 and PBS were added to appropriate wells across all assay plates in the same sequence as the blood to compound addition. Once added to all assay plates, samples were mixed quickly once to ensure even distribution of IL-8. Samples were incubated for 5 minutes at 37° C. in a water-bath. Following the incubation sample plates were transferred to ice where 250 μl of chilled Assay Fixative Buffer was added promptly to all wells. […]

| IC50 | Structure (SMILES) |
| --- | --- |
| 266 nM | Cc1ccc(S(=O)(=O)NCC(C)(C)O)cc1-c1cncc(-c2cn(C)nc2C)n1 [Example 2, 3-[6-(1,3-Dimethyl-1H-pyrazol-4-yl)-pyrazin-2-yl]-N-(2-hydroxy-2-methyl-propyl)-4-methyl-benzenesulfonamide] |
| 179 nM | Cc1ncc(-c2cncc(-c3cc(S(=O)(=O)N[C@H]4CC[C@H](O)CC4)ccc3C)n2)s1 [Example 5, Trans N-(4-Hydroxycyclohexyl)-4-methyl-3-(6-(2-methylthiazol-5-yl)pyrazin-2-yl)benzenesulfonamide] |
| 1080 nM | Cc1ccc(S(=O)(=O)NCCC(C)(C)O)cc1-c1cncc(-c2cn(C)nc2C)n1 [Example 3, 3-[6-(1,3-Dimethyl-1H-pyrazol-4-yl)-pyrazin-2-yl]-N-(3-hydroxy-3-methyl-butyl)-4-methyl-benzenesulfonamide] |
| 625 nM | Cc1ccc(S(=O)(=O)NCC(C)(C)CO)cc1-c1cncc(-c2cn(C)nc2C)n1 [Example 8, 3-[6-(1,3-Dimethyl-1H-pyrazol-4-yl)-pyrazin-2-yl]-N-(3-hydroxy-2,2-dimethyl-propyl)-4-methyl-benzenesulfonamide] |
| 752 nM | Cc1ccc(S(=O)(=O)N[C@H]2CC[C@H](O)CC2)cc1-c1cncc(-c2cccnc2)n1 [Example 11, Trans N-(4-Hydroxy-cyclohexyl)-4-methyl-3-(6-pyridin-3-yl-pyrazin-2-yl)-benzenesulfonamide] |
| 548 nM | Cc1ccc(S(=O)(=O)NCC2(C)COC2)cc1-c1cncc(-c2cn(C)nc2C)n1 [Example 4, Trans 3-[6-(1,3-Dimethyl-1H-pyrazol-4-yl)-pyrazin-2-yl]-4-methyl-N-(3-methyl-oxetan-3-ylmethyl)-benzenesulfonamide] |
| 598 nM | Cc1ccc(S(=O)(=O)NCCC(C)(C)O)cc1-c1cncc(-c2cnn(CCN3CCOCC3)c2)n1 [Example 9, N-(3-Hydroxy-3-methyl-butyl)-4-methyl-3-{6-[1-(2-morpholin-4-yl-ethyl)-1H-pyrazol-4-yl]-pyrazin-2-yl}-benzenesulfonamide] |
| 1330 nM | Cc1ncc(-c2cncc(-c3cc(S(=O)(=O)NCCCO)ccc3C)n2)s1 [Example 1, N-(3-Hydroxy-propyl)-4-methyl-3-[6-(2-methyl-thiazol-5-yl)-pyrazin-2-yl]-benzenesulfonamide] |
| 663 nM | Cc1ccc(S(=O)(=O)NCCC(C)(C)O)cc1-c1cncc(-c2cn(CCN3CCOCC3)nc2C)n1 [Example 10, N-(3-Hydroxy-3-methyl-butyl)-4-methyl-3-{6-[3-methyl-1-(2-morpholin-4-yl-ethyl)-1H-pyrazol-4-yl]-pyrazin-2-yl}-benzenesulfonamide] |
